Test results as given in US20210255193A1, “LYSINE REACTIVE PROBES AND USES THEREOF” (The Scripps Research Institute, priority 2017, published 2021).
Blank lines part the entries; values can stand above or below the compound they belong to.

Assays:
Assay in all cases: competitive isoTOP-ABPP
Format in all cases: binding
[1] = molecular target: T1, LDHB L-lactate dehydrogenase B chain (Homo sapiens, UniProt P07195); conditions: for isoTOP-ABPP ratio (R) at liganded lysine P07195_K244 / isoTOP-ABPP ratio (R) at liganded lysine P07195_K82: sol, 231
T1 construct: isoTOP-ABPP experiments performed in cell lysates (in vitro); endogenous in cells; host or cells: MDA-MB-231 soluble lysate
In short: (§1)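 Lysine engagement is reported as R, the MS1 peak-area ratio of heavy-tagged DMSO to light-tagged compound samples. Final fragment concentrations were 50 μM for activated esters and 100 μM for guanidinylating agents; STP-alkyne probe 0.1 mM, 1 h.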

[2] = molecular target: T2, NUDT22 Nucleoside diphosphate-linked moiety X motif 22 (Homo sapiens, UniProt Q9BRQ3); conditions: for isoTOP-ABPP ratio (R) at liganded lysine Q9BRQ3_K60: sol, 231; for isoTOP-ABPP ratio, lysine Q9BRQ3_K60: 50 uM_231_sol_in vitro
T2 construct: isoTOP-ABPP experiments performed in cell lysates (in vitro); endogenous in cells; host or cells: soluble proteome of human cancer cell lines (MDA-MB-231; Ramos and Jurkat also prepared)
T2 sequence (Q9BRQ3 1-303): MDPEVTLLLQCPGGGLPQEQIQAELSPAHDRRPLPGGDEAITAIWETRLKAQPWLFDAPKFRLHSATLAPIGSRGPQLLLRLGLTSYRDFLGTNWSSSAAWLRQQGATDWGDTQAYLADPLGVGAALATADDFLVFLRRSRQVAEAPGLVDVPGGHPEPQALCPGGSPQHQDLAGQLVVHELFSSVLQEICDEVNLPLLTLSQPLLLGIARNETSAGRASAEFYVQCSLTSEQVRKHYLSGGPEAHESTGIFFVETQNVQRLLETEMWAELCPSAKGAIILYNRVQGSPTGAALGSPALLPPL
In short: as §1

[3] = molecular target: T3, ATP6V1F V-type proton ATPase subunit F (Homo sapiens, UniProt Q16864); conditions: for isoTOP-ABPP ratio (R) at liganded lysine Q16864_K6: sol, 231
T3 construct: isoTOP-ABPP experiments performed in cell lysates (in vitro); endogenous in cells; host or cells: soluble proteome of human cancer cell lines (MDA-MB-231; Ramos and Jurkat also prepared)
In short: as §1

[4] = molecular target: T4, NT5DC1 5-nucleotidase domain-containing protein 1 (Homo sapiens, UniProt Q5TFE4)
T4 construct: isoTOP-ABPP experiments performed in cell lysates (in vitro); endogenous in cells; host or cells: soluble proteome of human cancer cell lines (MDA-MB-231; Ramos and Jurkat also prepared)
T4 sequence (Q5TFE4 1-455): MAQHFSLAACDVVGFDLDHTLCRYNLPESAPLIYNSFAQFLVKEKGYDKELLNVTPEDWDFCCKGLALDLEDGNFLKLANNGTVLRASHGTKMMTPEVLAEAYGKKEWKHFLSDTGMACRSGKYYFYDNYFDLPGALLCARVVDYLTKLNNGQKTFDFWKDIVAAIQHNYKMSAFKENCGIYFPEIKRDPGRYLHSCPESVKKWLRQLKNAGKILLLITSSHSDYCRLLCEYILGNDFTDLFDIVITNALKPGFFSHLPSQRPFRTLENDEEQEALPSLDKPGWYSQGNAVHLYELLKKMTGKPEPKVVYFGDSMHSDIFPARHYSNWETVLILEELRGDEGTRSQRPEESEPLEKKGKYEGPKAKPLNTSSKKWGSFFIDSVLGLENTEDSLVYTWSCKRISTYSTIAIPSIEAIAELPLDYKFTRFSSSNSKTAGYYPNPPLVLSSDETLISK
In short: as §1

T3 sequence (Q16864 whole entry): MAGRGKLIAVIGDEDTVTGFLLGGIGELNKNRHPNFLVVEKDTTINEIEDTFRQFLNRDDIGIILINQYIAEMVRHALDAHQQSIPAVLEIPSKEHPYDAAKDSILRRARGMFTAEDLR
T1 sequence (P07195 whole entry): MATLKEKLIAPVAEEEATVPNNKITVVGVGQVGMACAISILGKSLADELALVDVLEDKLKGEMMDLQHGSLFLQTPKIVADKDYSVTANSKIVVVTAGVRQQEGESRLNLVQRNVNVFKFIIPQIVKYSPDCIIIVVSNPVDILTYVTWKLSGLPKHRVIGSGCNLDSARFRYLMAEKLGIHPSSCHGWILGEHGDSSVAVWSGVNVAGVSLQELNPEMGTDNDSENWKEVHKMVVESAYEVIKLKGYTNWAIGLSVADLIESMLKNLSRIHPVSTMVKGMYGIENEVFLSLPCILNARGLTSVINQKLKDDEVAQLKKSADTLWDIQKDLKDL

Structure (SMILES): Cn1cc(CC(=O)Oc2ccc([N+](=O)[O-])cc2[N+](=O)[O-])c2ccccc21 [fragment 32, 2,4-Dinitrophenyl 2-(1-methyl-1H-indol-3-yl)acetate]
isoTOP-ABPP reactivity ratio at lysine P07195_K82 ([1]; 50 uM, 231 sol, in vitro): 0.8 | isoTOP-ABPP reactivity ratio at lysine P07195_K244 ([1]; 50 uM, 231 sol, in vitro): 1.0 | isoTOP-ABPP reactivity ratio at lysine Q9BRQ3_K60 ([2]; 50 uM, 231 sol, in vitro): 20.0

Structure (SMILES): COc1cc(CCC(=O)Oc2ccc([N+](=O)[O-])cc2[N+](=O)[O-])cc(OC)c1OC [fragment 33, 2,4-Dinitrophenyl 3-(3,4,5-trimethoxyphenyl)propanoate]
isoTOP-ABPP reactivity ratio at lysine Q16864_K6 ([3]; 50 uM, 231 sol, in vitro): 0.8

Structure (SMILES): O=C(Oc1ccc([N+](=O)[O-])cc1[N+](=O)[O-])C1CCN(C(=O)OCc2ccccc2)CC1 [fragment 34, 1-Benzyl 4-(2,4-dinitrophenyl) piperidine-1,4-dicarboxylate]
isoTOP-ABPP ratio (R) at liganded lysine P07195_K244 ([1]; 50 uM, in vitro): 1.0

Structure (SMILES): O=C(Oc1ccc([N+](=O)[O-])cc1[N+](=O)[O-])c1ccc2ccccc2n1 [fragment 35, 2,4-Dinitrophenyl quinoline-2-carboxylate]
isoTOP-ABPP ratio (R) at liganded lysine P07195_K82 ([1]; 50 uM, in vitro): 0.6 | isoTOP-ABPP ratio (R) at liganded lysine Q9BRQ3_K60 ([2]; 50 uM, in vitro): 1.1

Structure (SMILES): O=C(CCc1coc2cc(F)ccc2c1=O)Oc1ccc([N+](=O)[O-])cc1[N+](=O)[O-] [fragment 36, 2,4-Dinitrophenyl 3-(7-fluoro-4-oxo-4H-chromen-3-yl)propanoate]
isoTOP-ABPP ratio (R) at liganded lysine P07195_K82 ([1]; 50 uM, in vitro): 0.9 | isoTOP-ABPP ratio (R) at liganded lysine P07195_K244 ([1]; 50 uM, in vitro): 20.0 | isoTOP-ABPP ratio (R) at liganded lysine Q16864_K6 ([3]; 50 uM, in vitro): 1.0 | isoTOP-ABPP ratio (R) at liganded lysine Q5TFE4_K123 ([4]; 50 uM, in vitro, sol, 231): 20.0

Structure (SMILES): O=C(CC12CC3CC(CC(C3)C1)C2)Oc1ccc([N+](=O)[O-])cc1[N+](=O)[O-] [fragment 38, 2,4-Dinitrophenyl 2-(adamantan-1-yl)acetate]
isoTOP-ABPP ratio (R) at liganded lysine P07195_K82 ([1]; 50 uM, in vitro): 0.7 | isoTOP-ABPP ratio (R) at liganded lysine Q16864_K6 ([3]; 50 uM, in vitro): 1.0

Structure (SMILES): O=C(Oc1ccc([N+](=O)[O-])cc1[N+](=O)[O-])c1ccc(Oc2ccccc2)cc1 [fragment 39, 2,4-Dinitrophenyl 4-phenoxybenzoate]
isoTOP-ABPP ratio (R) at liganded lysine P07195_K82 ([1]; 50 uM, in vitro): 20.0 | isoTOP-ABPP ratio (R) at liganded lysine P07195_K244 ([1]; 50 uM, in vitro): 1.0 | isoTOP-ABPP ratio (R) at liganded lysine Q16864_K6 ([3]; 50 uM, in vitro): 0.9 | isoTOP-ABPP ratio (R) at liganded lysine Q9BRQ3_K60 ([2]; 50 uM, in vitro): 0.9

Structure (SMILES): O=C(Oc1ccc([N+](=O)[O-])cc1[N+](=O)[O-])c1ccccc1Nc1cccc(C(F)(F)F)c1 [fragment 40, 2,4-Dinitrophenyl 2-((3-(trifluoromethyl)phenyl)amino)benzoate]
isoTOP-ABPP ratio (R) at liganded lysine P07195_K82 ([1]; 50 uM, in vitro): 20.0 | isoTOP-ABPP ratio (R) at liganded lysine Q16864_K6 ([3]; 50 uM, in vitro): 0.9 | isoTOP-ABPP ratio (R) at liganded lysine Q9BRQ3_K60 ([2]; 50 uM, in vitro): 0.9

Structure (SMILES): CC(C)(C)OC(=O)NCCCC(=O)Oc1ccc([N+](=O)[O-])cc1[N+](=O)[O-] [fragment 41, 2,4-Dinitrophenyl 4-((tert-butoxycarbonyl)amino)butanoate]
isoTOP-ABPP ratio (R) at liganded lysine P07195_K244 ([1]; 50 uM, in vitro): 20.0 | isoTOP-ABPP ratio (R) at liganded lysine Q16864_K6 ([3]; 50 uM, in vitro): 1.0 | isoTOP-ABPP ratio (R) at liganded lysine Q9BRQ3_K60 ([2]; 50 uM, in vitro): 20.0

Structure (SMILES): CC(=O)Oc1ccc([N+](=O)[O-])cc1[N+](=O)[O-] [fragment 43, 2,4-Dinitrophenyl acetate]
isoTOP-ABPP ratio (R) at liganded lysine Q16864_K6 ([3]; 50 uM, in vitro): 20.0

Structure (SMILES): N#Cc1ccc(C(=O)Oc2ccc([N+](=O)[O-])cc2[N+](=O)[O-])cc1 [fragment 44, 2,4-Dinitrophenyl 4-cyanobenzoate]
isoTOP-ABPP ratio, lysine P07195_K82 ([1]; 50 uM_231_sol_in vitro): 1.0 | isoTOP-ABPP ratio, lysine P07195_K244 ([1]; 50 uM_231_sol_in vitro): 1.1 | isoTOP-ABPP ratio, lysine Q16864_K6 ([3]; 50 uM_231_sol_in vitro): 1.2

Structure (SMILES): O=C(CCc1ccc2c(c1)OCO2)Oc1ccc([N+](=O)[O-])cc1[N+](=O)[O-] [fragment 45, 2,4-Dinitrophenyl 3-(benzo[d][1,3]dioxol-5-yl)propanoate]
isoTOP-ABPP ratio, lysine Q16864_K6 ([3]; 50 uM_231_sol_in vitro): 1.0 | isoTOP-ABPP ratio, lysine Q9BRQ3_K60 [2]: 1.7 | isoTOP-ABPP ratio, lysine Q5TFE4_K123 ([4]; 50 uM_231_sol_in vitro): 2.1

isoTOP-ABPP ratio, lysine P07195_K244 ([1]; 50 uM_231_sol_in vitro): 1.0 | isoTOP-ABPP ratio, lysine Q9BRQ3_K60 [2]: 1.1
Structure (SMILES): O=C(Oc1c(F)c(F)c(C(F)(F)F)c(F)c1F)c1cc(C(F)(F)F)cc(C(F)(F)F)c1 [fragment 47, 2,3,5,6-Tetrafluoro-4-(trifluoromethyl)phenyl 3,5-bis(trifluoromethyl)benzoate]

isoTOP-ABPP ratio, lysine Q16864_K6 ([3]; 100 uM_231_sol_in vitro): 1.3 | isoTOP-ABPP ratio, lysine Q5TFE4_K123 ([4]; 100 uM_231_sol_in vitro): 1.3
Structure (SMILES): COC(=O)NC(=NC(=O)OCC1c2ccccc2-c2ccccc21)n1cccn1 [fragment 49, N-Methoxycarbonyl-N′-9-fluorenylmethoxycarbonyl-pyrazole-1-carboxamidine]
